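Briefly, cells in 96-well plates were exposed to five compound concentrations for 48 h, and endpoints were estimated by linear interpolation. GI50 = concentration required for 50% inhibition of growth.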 The source made the active and inactive calls. Cut-off read from the data, not from the text of the source: active = GI50 up to about 1.1 µM and inactive = higher.
Tests used:
Test in all cases: NCI anticancer screen, dose series, 48 h
IGROV-1 = system: IGROV-1
COLO 205 = system: COLO 205
M14 = system: M14
ACHN = system: ACHN
CAKI-1 = system: CAKI-1
NCI-H460 = system: NCI-H460
UO-31 = system: UO-31
SK-OV-3 = system: SK-OV-3
KM-20L2 = system: KM-20L2
HCT-116 = system: HCT-116
NCI-H23 = system: NCI-H23
HOP-62 = system: HOP-62
DMS-273 = system: DMS-273
SN12C = system: SN12C
HCC 2998 = system: HCC 2998
OVCAR-8 = system: OVCAR-8
CCRF-CEM = system: CCRF-CEM
HT-29 = system: HT-29
786-0 = system: 786-0
LOX IMVI = system: LOX IMVI
SNB-75 = system: SNB-75
U-251 = system: U-251
A498 = system: A498
SNB-19 = system: SNB-19
HL-60 = system: HL-60
TK-10 = system: TK-10
DLD-1 = system: DLD-1
SNB-78 = system: SNB-78
EKVX = system: EKVX
K562 = system: K562
SF-268 = system: SF-268
SW-620 = system: SW-620
A549 = system: A549
OVCAR-4 = system: OVCAR-4
MOLT-4 = system: MOLT-4
LXFL 529 = system: LXFL 529
HCT-15 = system: HCT-15
M19-MEL = system: M19-MEL
XF498 = system: XF498
SK-MEL-28 = system: SK-MEL-28
UACC-62 = system: UACC-62
HOP-18 = system: HOP-18
SF-539 = system: SF-539
SK-MEL-5 = system: SK-MEL-5
OVCAR-3 = system: OVCAR-3
SF-295 = system: SF-295
DMS-114 = system: DMS-114
RPMI-8226 = system: RPMI-8226
NCI-H226 = system: NCI-H226
KM12 = system: KM12
Malme-3M = system: Malme-3M
NCI-H522 = system: NCI-H522
OVCAR-5 = system: OVCAR-5
MCF7 = system: MCF7
SK-MEL-2 = system: SK-MEL-2
RXF 393 = system: RXF 393
HOP-92 = system: HOP-92
NCI/ADR-RES = system: NCI/ADR-RES
UACC-257 = system: UACC-257

Cc1ccc(/C=C2\CCCC\C2=N\O)cc1
GI50 (IGROV-1): 74.5 µM (inactive)
GI50 (COLO 205): 81.5 µM (inactive)
GI50 (M14): > 100 µM (inactive)
GI50 (ACHN): 37.8 µM (inactive)
GI50 (CAKI-1): 56.6 µM (inactive)
GI50 (NCI-H460): 54 µM (inactive)
GI50 (UO-31): 26.9 µM (inactive)
GI50 (SK-OV-3): > 100 µM (inactive)
GI50 (KM-20L2): 75.9 µM (inactive)
GI50 (HCT-116): 45.9 µM (inactive)
GI50 (NCI-H23): 47.3 µM (inactive)
GI50 (HOP-62): > 100 µM (inactive)
GI50 (DMS-273): 56.8 µM (inactive)
GI50 (SN12C): 47 µM (inactive)
GI50 (HCC 2998): 19.9 µM (inactive)
GI50 (OVCAR-8): 59.3 µM (inactive)
GI50 (CCRF-CEM): 45.4 µM (inactive)
GI50 (HT-29): 51.8 µM (inactive)
GI50 (786-0): 48.5 µM (inactive)
GI50 (LOX IMVI): 58.7 µM (inactive)
GI50 (SNB-75): 26.2 µM (inactive)
GI50 (U-251): 60.1 µM (inactive)
GI50 (A498): 37.7 µM (inactive)
GI50 (SNB-19): 53 µM (inactive)
GI50 (HL-60): 12.9 µM (inactive)
GI50 (TK-10): > 100 µM (inactive)
GI50 (DLD-1): 41.9 µM (inactive)
GI50 (SNB-78): 30.3 µM (inactive)
GI50 (EKVX): 80.2 µM (inactive)
GI50 (K562): 41 µM (inactive)
GI50 (SF-268): 51.2 µM (inactive)
GI50 (SW-620): > 100 µM (inactive)
GI50 (A549): 71.8 µM (inactive)
GI50 (OVCAR-4): 38.8 µM (inactive)
GI50 (MOLT-4): > 10 µM (inactive)
GI50 (LXFL 529): 46.3 µM (inactive)
GI50 (HCT-15): 44.6 µM
GI50 (M19-MEL): 87.7 µM (inactive)
GI50 (XF498): 31.3 µM (inactive)
GI50 (SK-MEL-28): > 100 µM (inactive)
GI50 (UACC-62): > 100 µM (inactive)
GI50 (HOP-18): 59.6 µM (inactive)
GI50 (SF-539): 88.3 µM (inactive)
GI50 (SK-MEL-5): 35.1 µM (inactive)
GI50 (OVCAR-3): > 100 µM (inactive)
GI50 (SF-295): 74.3 µM (inactive)

COc1cc(/C=C/C(=O)O)ccc1C(=O)OCc1ccccc1
GI50 (IGROV-1): > 100 µM (inactive)
GI50 (COLO 205): > 100 µM (inactive)
GI50 (DMS-114): > 100 µM (inactive)
GI50 (RPMI-8226): > 100 µM (inactive)
GI50 (NCI-H460): > 100 µM (inactive)
GI50 (UO-31): > 100 µM (inactive)
GI50 (SK-OV-3): > 100 µM (inactive)
GI50 (KM-20L2): > 100 µM (inactive)
GI50 (HCT-116): > 100 µM (inactive)
GI50 (NCI-H23): > 100 µM (inactive)
GI50 (HOP-62): > 100 µM (inactive)
GI50 (NCI-H226): > 100 µM (inactive)
GI50 (DMS-273): > 100 µM (inactive)
GI50 (SN12C): > 100 µM (inactive)
GI50 (HCC 2998): > 100 µM (inactive)
GI50 (OVCAR-8): > 100 µM (inactive)
GI50 (CCRF-CEM): > 100 µM (inactive)
GI50 (KM12): > 100 µM (inactive)
GI50 (HT-29): > 100 µM (inactive)
GI50 (Malme-3M): > 100 µM (inactive)
GI50 (LOX IMVI): > 100 µM (inactive)
GI50 (SNB-75): > 100 µM (inactive)
GI50 (U-251): > 100 µM (inactive)
GI50 (A498): > 100 µM (inactive)
GI50 (NCI-H522): > 100 µM (inactive)
GI50 (SNB-19): > 100 µM (inactive)
GI50 (HL-60): > 100 µM (inactive)
GI50 (OVCAR-5): > 100 µM (inactive)
GI50 (DLD-1): > 100 µM (inactive)
GI50 (SNB-78): > 100 µM (inactive)
GI50 (MCF7): > 100 µM (inactive)
GI50 (EKVX): > 100 µM (inactive)
GI50 (SK-MEL-2): > 100 µM (inactive)
GI50 (K562): > 100 µM (inactive)
GI50 (SF-268): > 100 µM (inactive)
GI50 (SW-620): > 100 µM (inactive)
GI50 (A549): > 100 µM (inactive)
GI50 (OVCAR-4): > 100 µM (inactive)
GI50 (MOLT-4): > 100 µM (inactive)
GI50 (RXF 393): > 100 µM (inactive)
GI50 (HCT-15): > 100 µM
GI50 (M19-MEL): > 100 µM (inactive)
GI50 (XF498): > 100 µM (inactive)
GI50 (HOP-92): > 100 µM (inactive)
GI50 (SK-MEL-28): > 100 µM (inactive)
GI50 (NCI/ADR-RES): > 100 µM (inactive)
GI50 (UACC-62): > 100 µM (inactive)
GI50 (UACC-257): > 100 µM (inactive)
GI50 (HOP-18): > 100 µM (inactive)
GI50 (SF-539): > 100 µM (inactive)
GI50 (SK-MEL-5): > 100 µM (inactive)
GI50 (OVCAR-3): > 100 µM (inactive)
GI50 (SF-295): > 100 µM (inactive)
